Laboratory results taken from the supplement of paper PMC12137928.
Where a name gives a salt, the structure may show the parent alone.

Test system: HCT116
Details: 72 h
Outline: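 Four-parameter Hill fits gave IC50 and maximal efficacy. The data were CellTiter-Glo luminescence readings in HCT116 cells, normalized so that vehicle was 0% and positive control was -100%, with pattern correction afterwards.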

Structure (SMILES)	IC50 cell viability (ICRF193 0 nM) [µM]	IC50 cell viability (ICRF193 200 nM) [µM]
O=c1[nH]c(=O)n([C@@H]2O[C@H](CO)[C@@H](O)[C@@H]2O)cc1/C=C/Br [Bravavir]	> 45.8	> 45.8
CC[N+](C)(C)Cc1ccccc1Br [Bretylium tosylate]	> 45.8	> 45.8
Brc1c(NC2=NCCN2)ccc2nccnc12 [Brimonidine]	> 45.8	> 45.8
Cc1ccc(Sc2ccccc2N2CCNCC2)c(C)c1 [Brintellix]	> 45.8	> 45.8
CCN[C@H]1CN(CCCOC)S(=O)(=O)c2sc(S(N)(=O)=O)cc21 [Brinzolamide]	> 45.8	> 45.8
CCC[C@@H]1CC(=O)N([C@@H](CC)C(N)=O)C1 [Brivaracetam]	> 45.8	> 45.8
Nc1c(CC(=O)O)cccc1C(=O)c1ccc(Br)cc1 [Bromfenac sodium sesquihydrate]	> 45.8	> 45.8
CN(Cc1cc(Br)cc(Br)c1N)C1CCCCC1 [Bromhexine hydrochloride]	> 45.8	> 45.8
CC(C)C(Br)C(=O)NC(N)=O (stereo not drawn) [Bromisovalum]	> 45.8	> 45.8
CN(C)CCOC(c1ccccc1)c1ccc(Br)cc1 (stereo not drawn) [Bromodiphenhydramine]	> 45.8	> 45.8
CN(C)CCC(c1ccc(Br)cc1)c1ccccn1 (stereo not drawn) [Brompheniramine (maleate)]	> 45.8	> 45.8
Nc1nc(=O)c(Br)c(-c2ccccc2)[nH]1 [Bropirimine]	> 45.8	> 45.8
Cc1nnc2n1-c1sc(Br)cc1C(c1ccccc1Cl)=NC2 [Brotizolam]	> 45.8	> 45.8
COc1cc2c(cc1OC)C13CC[N+]4([O-])CC5=CCOC6CC(=O)N2C1C6C5CC34 (stereo not drawn) [Brucine-N-oxide]	> 45.8	> 45.8
CC(C)(S)C(=O)N[C@@H](CS)C(=O)O [Bucillamine]	> 45.8	> 45.8
CCCCC1C(=O)NC(=O)N(C2CCCCC2)C1=O (stereo not drawn) [Bucolome]	> 45.8	> 45.8
CCCC1O[C@@H]2C[C@H]3[C@@H]4CCC5=CC(=O)C=C[C@]5(C)[C@H]4[C@@H](O)C[C@]3(C)[C@]2(C(=O)CO)O1 (stereo partly drawn) [Budesonide]	> 45.8	> 45.8
CC(C)=C/C(C)=N/Nc1nncc2ccccc12 [Budralazine]	> 45.8	> 45.8
CC(C)(C)NCC(O)COc1ccccc1OCC1CCCO1 (stereo not drawn) [Bufetolol]	> 45.8	> 45.8
CCCCOc1ccc(CC(=O)NO)cc1 [Bufexamac]	> 45.8	> 45.8
CCCCNC(=N)NC(=N)N [Buformin]	> 45.8	> 45.8
CCCCNc1cc(C(=O)O)cc(S(N)(=O)=O)c1Oc1ccccc1 [Bumetanide]	> 45.8	> 45.8

Structure (SMILES)	IC50 cell viability (ICRF193 0 nM) [µM]	IC50 cell viability (ICRF193 200 nM) [µM]
Cc1ccc(Cl)c(OCC(O)CNC(C)(C)C)c1 (stereo not drawn) [Bupranolol]	> 45.8	> 45.8
CC(NC(C)(C)C)C(=O)c1cccc(Cl)c1 (stereo not drawn) [Bupropion hydrochloride]	> 45.8	> 45.8
CCOC(=O)c1cnc2cc(OCC(C)C)c(OCC(C)C)cc2c1O [Buquinolate]	> 45.8	> 45.8
O=C1CC2(CCCC2)CC(=O)N1CCCCN1CCN(c2ncccn2)CC1 [Buspirone]	> 45.8	> 45.8
CS(=O)(=O)OCCCCOS(C)(=O)=O [Busulfan]	> 45.8	> 45.8
CCCCN(CCCC)CCCOC(=O)c1ccc(N)cc1 [Butacaine]	> 45.8	> 45.8
CC(C)C(=O)Nc1cccc(C2CN3CCSC3=N2)c1 (stereo not drawn) [Butamisole]	> 45.8	> 45.8
O=C(O)CCC(=O)O [Butanedioic acid]	> 45.8	> 45.8
CN(Cc1ccc(C(C)(C)C)cc1)Cc1cccc2ccccc12 [Butenafine]	> 45.8	> 45.8
CCCCC(CC)CNC(=O)CC(C)OC(=O)CCC(=O)O (stereo not drawn) [Butoctamide semisuccinate]	> 45.8	> 45.8
CCCC(=O)OC(C(Cl)(Cl)Cl)P(=O)(OC)OC (stereo not drawn) [Butonate]	> 45.8	> 45.8
CCCCOc1ccc(C[N+]2(C)[C@@H]3CC[C@H]2C[C@H](OC(=O)C(CO)c2ccccc2)C3)cc1 (stereo partly drawn) [Butropium Bromide]	> 45.8	> 45.8
CCCCOC(=O)c1ccc(N)cc1 [Butyl 4-aminobenzoate]	> 45.8	> 45.8
CCCCOC(=O)c1ccc(O)cc1 [Butylparaben]	> 45.8	> 45.8
CCCC[N+]1(C)[C@@H]2C[C@@H](OC(=O)[C@H](CO)c3ccccc3)C[C@H]1[C@@H]1O[C@@H]12 (stereo partly drawn) [Butylscopolamine bromide]	> 45.8	> 45.8
Cc1ccccc1/N=N/c1ccc(/N=N/c2c(O)ccc3ccccc23)c(C)c1 [C.I. Solvent Red 24]	> 45.8	> 45.8
O=C([O-])C(O)[C@H](O)[C@@H](O)[C@H](O)[C@H](O)CO.O=C([O-])C(O)[C@H](O)[C@@H](O)[C@H](O)[C@H](O)CO.[Ca+2] (stereo partly drawn) [CALCIUM GLUCEPTATE]	> 45.8	> 45.8
COC(=S)NCCn1c([N+](=O)[O-])cnc1C [CARNIDAZOLE]	> 45.8	> 45.8
N[C@@H](C(=O)N[C@@H]1C(=O)N2C(C(=O)O)=C(Cl)CS[C@H]12)c1ccccc1 [CEFACLOR]	> 45.8	> 45.8
Cn1nnnc1SCC1=C(C(=O)O)N2C(=O)[C@@H](NC(=O)[C@H](O)c3ccccc3)[C@H]2SC1 [CEFAMANDOLE SODIUM]	> 45.8	> 45.8
CO/N=C(\C(=O)N[C@@H]1C(=O)N2C(C(=O)O)=C(C[N+]3(C)CCCC3)CS[C@H]12)c1csc(N)n1 [CEFEPIME HYDROCHLORIDE]	> 45.8	> 45.8
CO/N=C(\C(=O)N[C@@H]1C(=O)N2C(C(=O)O)=C(CSc3nnnn3C)CS[C@H]12)c1csc(N)n1 [CEFMENOXIME HYDROCHLORIDE]	> 45.8	> 45.8

Structure (SMILES)	IC50 cell viability (ICRF193 0 nM) [µM]	IC50 cell viability (ICRF193 200 nM) [µM]
CO[C@@]1(NC(=O)C2SC(=C(C(N)=O)C(=O)O)S2)C(=O)N2C(C(=O)O)=C(CSc3nnnn3C)CS[C@@H]21 (stereo partly drawn) [CEFOTETAN]	> 45.8	> 45.8
COCC1=C(C(=O)OC(C)OC(=O)OC(C)C)N2C(=O)[C@@H](NC(=O)/C(=N\OC)c3csc(N)n3)[C@H]2SC1 (stereo partly drawn) [CEFPODOXIME PROXETIL]	> 45.8	> 45.8
COCC1=C(C(=O)O)N2C(=O)[C@@H](NC(=O)/C(=N\OC)c3csc(N)n3)[C@H]2SC1 [CEFPODOXIME]	> 45.8	> 45.8
Nc1nc(/C(=C/CC(=O)O)C(=O)N[C@@H]2C(=O)N3C(C(=O)O)=CCS[C@H]23)cs1 [CEFTIBUTEN]	> 45.8	> 45.8
CO/N=C(\C(=O)N[C@@H]1C(=O)N2C(C(=O)O)=C(CSC(=O)c3ccco3)CS[C@H]12)c1csc(N)n1 [CEFTIOFUR HYDROCHLORIDE]	> 45.8	> 45.8
Cc1oc(=O)oc1COC(=O)N1CC[C@@H](N2CC/C(=C\C3=C(C(=O)O)N4C(=O)[C@@H](NC(=O)/C(=N/O)c5nsc(N)n5)[C@H]4SC3)C2=O)C1 [CEFTOBIPROLE MEDOCARIL SODIUM]	> 45.8	> 45.8
CC1=C(C(=O)O)N2C(=O)[C@@H](NC(=O)[C@H](N)C3=CCC=CC3)[C@H]2SC1 [CEPHRADINE]	> 45.8	> 45.8
O=C(O)COCCN1CCN(C(c2ccccc2)c2ccc(Cl)cc2)CC1 (stereo not drawn) [CETIRIZINE HYDROCHLORIDE]	> 45.8	> 45.8
C=C[C@H]1CN2CC[C@H]1C[C@H]2[C@H](O)c1ccnc2ccccc12 [CINCHONIDINE]	> 45.8	> 45.8
O=C(O)/C=C/c1ccccc1 [CINNAMIC ACID]	> 45.8	> 45.8
C[N+](C)(C)CCOP(=O)(O)OP(=O)([O-])OC[C@H]1O[C@@H](n2ccc(N)nc2=O)[C@H](O)[C@@H]1O [CITICOLINE]	> 45.8	> 45.8
O=C([O-])[C@H]1/C(=C/CO)O[C@@H]2CC(=O)N21.[Li+] [CLAVULANATE LITHIUM]	> 45.8	> 45.8
Nc1ccn([C@@H]2O[C@H](CO)[C@@H](O)[C@H]2O)c(=O)n1 [CYTIDINE]	> 45.8	> 45.8
C=CCN1C[C@H](C(=O)N(CCCN(C)C)C(=O)NCC)C[C@@H]2c3cccc4[nH]cc(c34)C[C@H]21 [Cabergoline]	> 45.8	> 45.8
CCOC(=O)NNc1ccc(N(CC)CC(C)O)nn1 (stereo not drawn) [Cadralazine]	> 45.8	> 45.8
Cn1c(=O)c2c(ncn2C)n(C)c1=O [Caffeine]	> 45.8	> 45.8
C=C1/C(=C\C=C2/CCC[C@]3(C)[C@@H]([C@H](C)CCCC(C)(C)O)CC[C@@H]23)C[C@@H](O)C[C@@H]1O [Calcitriol]	> 45.8	> 45.8
CC(C)(CO)[C@@H](O)C(=O)NCCCC(=O)O [Calcium hopantenate]	> 45.8	> 45.8
CC(=O)CCC(=O)O [Calcium levulinate]	> 45.8	> 45.8
C=CCCCCCCCCC(=O)[O-].C=CCCCCCCCCC(=O)[O-].[Ca+2] [Calcium undecylenate]	> 45.8	> 45.8
